Structures can show the parent of a compound that is named as a salt. Where two headings read alike, the source gives them in different places.
Experiments:
[1] = system: RH7777 rat hepatoma cells; test: SRB cytotoxicity assay, RH7777 control cell line; type: cell-based; settings: read-out: IC50 RH7777
Method in brief: (§1)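 For each line, end-of-treatment cell numbers after 96 h with compound (0–100 μM, three to five replicates) came from absorbance at 540 nm of trichloroacetic acid-fixed, SRB-stained cells, calculated as a percentage of untreated wells.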

[2] = system: LNCaP human prostate cancer cells; test: SRB cytotoxicity assay, LNCaP; type: cell-based; settings: 96 h; for IC50: read-out: IC50 LNCaP
Method in brief: as §1

[3] = system: PPC-1 human prostate cancer cells; test: SRB cytotoxicity assay, PPC-1; type: cell-based
Method in brief: as §1

[4] = system: TSU-Pr1 human prostate cancer cells; test: SRB cytotoxicity assay, TSU-Pr1; type: cell-based; settings: 96 h
Method in brief: as §1

[5] = system: CHO cells (CHO-1, CHO-K1); test: SRB cytotoxicity assay, CHO; type: cell-based; settings: Table 9; negative control cell line; 96 h
Description: (§2) For in vitro cytotoxicity screening, 1000 to 5000 cells were plated into each well of 96-well plates depending on growth rate, and exposed to different concentrations of a test compound for 96 h in three to five replicates. All the compounds were dissolved in dimethyl sulfoxide at 5 to 20 mM, and diluted to desired concentrations in complete culture medium. Cell numbers at the end of the drug treatment were measured by the SRB assay (Gududuru et al., “Synthesis and Biological Evaluation of Novel Cytotoxic Phospholipids for Prostate Cancer,” Bioorg. Med. Chem. Lett. 14:4919-4923 (2004); Rubinstein et at., “Comparison of in vitro Anticancer-Drug-Screening Data Generated with a Tetrazolium Assay Versus a Protein Assay Against a Diverse Panel of Human Tumor Cell Lines,” J. Naatl, Cancer Inst. 82:1113-1118 (1990), each of which is hereby incorporated by reference in its entirety). Briefly, the cells were fixed with 10% of trichloroacetic acid, stained with 0.4% SRB, and the absorbances at 540 nm was measured using a plate reader (DYNEX Technologies, Chantilly, Va.).
(§3) In vitro cytotoxicity assay was performed by the same sulforhodamine B (SRB) assay (described above). The compounds shown in Table 8 below where tested for activity against the breast cancer and ovarian cancer cell lines.
(§4) Cells were exposed to a wide range of concentrations (0 to 100 μM) of the particular compound for 96 h in 96 well plates. Cells were fixed with 10% trichloroacetic acid, washed five times with water. The plates were air dried overnight and fixed cells were stained with SRB solution. The cellular protein-bound SRB was measured at 540 nm using a plate reader. Cell numbers at the end of the treatment were measured.
as §4, with “96-well” for “96 well”, “calculated as a percentage of untreated control.” for “measured.”

[6] = system: five human prostate cancer cell lines (DU-145, PC-3, LNCaP, PPC-1, TSU-Pr1); test: SRB cytotoxicity assay, statements over several cell lines; type: cell-based
Description: as §2
The antiproliferative activity of all the synthesized compounds was evaluated against five human prostate cancer cell lines and in RH7777 cells (negative control) using the sulforhodamine B (SRB) assay (see description in Example 5 above). […]

[7] = system: DU-145 human prostate cancer cells; test: SRB cytotoxicity assay, DU-145; type: cell-based; settings: 96 h
Method in brief: as §1

[8] = system: PC-3 human prostate cancer cells; test: SRB cytotoxicity assay, PC-3; type: cell-based; settings: 96 h, read-out: IC50 PC-3
Method in brief: as §1

[9] = system: human breast cancer cell line (MCF-7); test: SRB cytotoxicity assay, MCF-7; type: cell-based; settings: Homo sapiens, MCF7, read-out: IC50 MCF-7
Method in brief: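 Cells plated at 1000–5000 per well by growth rate and exposed to compound (0 to 100 μM) for 96 h, three to five replicates. Cell number read by sulforhodamine B: TCA fixation, 0.4% SRB staining, absorbance at 540 nm.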

[10] = system: CaOv-3 human ovarian cancer cell line; test: SRB cytotoxicity assay, CaOv-3; type: cell-based; settings: Homo sapiens, Caov-3; Table 8
Description: as §2, §3

[11] = system: OVCAR-3 human ovarian cancer cell line; test: SRB cytotoxicity assay, OVCAR-3; type: cell-based; settings: Homo sapiens, OVCAR-3; Table 8
Description: as §2, §3

[12] = system: SKOv-3 human ovarian cancer cell line; test: SRB cytotoxicity assay, SKOv-3; type: cell-based; settings: Homo sapiens, SK-OV-3; Table 8
Description: as §2, §3

[13] = Table 9, negative control cell line, 96 h
[14] = Table 9, 96 h, read-out: IC50 PPC-1
[15] = Rattus norvegicus, RH7777, Table 4, control cell line, 96 h
[16] = Homo sapiens, DU-145, read-out: IC50 DU-145, Table 4
[17] = Homo sapiens, PPC-1, Table 4, 96 h, read-out: IC50 PPC-1
[18] = Homo sapiens, TSU-Pr1, Table 4, read-out: IC50 TSU-Pr1
[19] = Table 8, breast cancer cell line
[20] = Rattus norvegicus, RH7777, Example 10 table, 0 to 100 μM for 96 h
[21] = Homo sapiens, DU-145, read-out: IC50 DU-145, Example 10 table
[22] = Homo sapiens, LNCaP, Example 10 table
[23] = Homo sapiens, PPC-1, Example 10 table, 96 h, read-out: IC50 PPC-1
[24] = Homo sapiens, TSU-Pr1, Example 10 table, read-out: IC50 TSU-Pr1

| Structure (SMILES) | IC50 [1, 13] | IC50 [3, 14] | IC50 [5] | IC50 [1, 15] | IC50 [7, 16] | IC50 ([2]; Homo sapiens, LNCaP, Table 4) | IC50 [3, 17] | IC50 [4, 18] | IC50 [9, 19] | IC50 ([7]; read-out: IC50 DU-145, Table 9) | IC50 ([8]; Table 9) | IC50 ([2]; Table 9) | IC50 ([4]; Table 9, read-out: IC50 TSU) | IC50 [10] | IC50 [11] | IC50 [12] | other results |
| --- | --- | --- | --- | --- | --- | --- | --- | --- | --- | --- | --- | --- | --- | --- | --- | --- | --- |
| CCCCCCCCC=CCCCCCCCC(=O)NCCO [compound 319] | > 20 µM | > 20 µM | > 20 µM | – | – | – | – | – | – | – | – | – | – | – | – | – | IC50 LNCaP ([2]; Table 9): Not Active; IC50 TSU ([4]; Table 9): Not; Activity against DU-145, PC-3, and LNCaP prostate cancer cell lines [6]: did not show any activity |
| CCCCCCCCCCCCCCCCCCNC(=O)c1csc(-c2ccccc2)n1 [Compound 34, 2-phenylthiazole-4-carboxylic acid octadecylamide] | – | – | – | > 20 µM | > 20 µM | > 20 µM | > 20 µM | > 20 µM | > 20 µM | – | – | – | – | – | – | – | IC50 ([8]; Homo sapiens, Table 4): > 20 µM; IC50 ([6]; both prostate and RH7777 cells, read-out: No activity below (concentration)): > 20 µM |
| CCCCCCCCNC(=O)C(CO)NC(=O)CCCCCCC (centres unmarked) [315d] | – | 81.2 µM | > 100 µM | – | – | – | – | – | – | > 100 µM | 81.5 µM | > 100 µM | 93.8 µM | – | – | – | – |
| CCCCCCCCC=CCCCCCCCCNC(=O)C(N)CO (centres unmarked) [compound 309] | 6.8 µM | 5.1 µM | 5.2 µM | – | – | – | – | – | – | 6.9 µM | 5.9 µM | 6.6 µM | 5.5 µM | – | – | – | – |
| CCCCCCCNC(=O)[C@@H]1CSC(c2ccccc2)N1 (mixture of isomers) [Compound 3-HCI, (2RS, 4R)-2-Phenylthiazolidine-4-carboxylic acid heptylamide Hydrochloride] | – | – | – | – | – | – | – | – | 50.3 µM | – | – | – | – | 19.2 µM | 34 µM | 47.8 µM | IC50 [1, 20]: 52.2 µM; IC50 [7, 21]: 44.9 µM; IC50 ([8]; Homo sapiens, Example 10 table): 38.5 µM; IC50 [2, 22]: 12.4 µM; IC50 [3, 23]: 34.7 µM; IC50 [4, 24]: 28 µM; IC50 ([9]; Example 10 table, 96 h): 50.3 µM |
| CCCCCCCCC=CCCCCCCCC(=O)NCCOP(=O)(O)O [compound 320] | > 50 µM | – | > 50 µM | – | – | – | – | – | – | > 50 µM | > 50 µM | – | > 50 µM | – | – | – | IC50 LNCaP ([2]; Table 9): Not Active |
| CCCCCCCCCCCCCCCCCCNC[C@@H](N)CO [compound 317] | 2.9 µM | 1.9 µM | 2.2 µM | – | – | – | – | – | – | 4.1 µM | 2.6 µM | 5.1 µM | 2.2 µM | – | – | – | – |
| CCCCCCCCCCCCCCCCCCNC(=O)[C@@H]1CSC(c2ccc(F)cc2)N1 (mixture of isomers) [Compound 19, (2RS, 4R)-2-(4-Fluoro-phenyl)-thiazolidine-4-carboxylic acid octadecylamide] | – | – | – | 17.4 µM | 5.7 µM | 1.9 µM | 2.1 µM | 5.4 µM | 8.8 µM | – | – | – | – | 5.5 µM | 2.3 µM | 4.2 µM | melting point: 65 °C |
| CCCCCCCCCCCCCCCCCCNC(=O)[C@H]1CSC(c2ccccc2)N1 (stereo partly drawn) [5-HCI (S), (4S)-N-octadecyl-2-phenylthiazolidine-4-carboxamide] | – | – | – | – | – | – | – | – | 7.4 µM | – | – | – | – | 18 µM | 5.2 µM | 18 µM | IC50 [1, 20]: 19.1 µM; IC50 [7, 21]: 7.1 µM; IC50 ([8]; Homo sapiens, Example 10 table): > 10 µM; IC50 [2, 22]: 6.3 µM; IC50 [3, 23]: 4 µM; IC50 [4, 24]: ~10 µM; IC50 ([9]; Example 10 table, 96 h): 7.4 µM |
| CCCCCCCCCCCCCCCCCCNC(=O)[C@@H]1CSC(c2ccc(NC(C)=O)cc2)N1.Cl (mixture of isomers) [Compound 18-HCI, (2RS, 4R)-2-(4-Acetylamino-phenyl)-thiazolidine-4-carboxylic acid octadecylamide Hydrochloride] | – | – | – | 21.1 µM | 3.1 µM | 1.3 µM | 0.55 µM | 0.94 µM | – | – | – | – | – | 4.9 µM | 2 µM | 2.6 µM | IC50 ([8]; Homo sapiens, Table 4): 5.6 µM; Selectivity in PPC-1 cells compared to RH7777 cells [3]: 38 fold; IC50 ([3]; Homo sapiens, PPC-1, read-out: IC50 in PPC-1 cells): 0.55 µM |
